# Laboratory results: ChEMBL document CHEMBL1201862, “PubChem BioAssay data set” (2004)
#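 1) Cells in 96-well plates. 2) Compound, 48 h, 5 concentrations. 3) Linear interpolation between surrounding doses. 4) Unreached endpoint = highest concentration. Abbreviation: GI50, concentration required for 50% inhibition of growth.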 Calls of active or inactive are those of the source. No stated cut-off is given here; in the data, active = GI50 up to about 1.1 µM and inactive = higher.
# Columns and labels:
# Assay in all cases: growth of human tumour cells (NCI), 48 h
# HCT-116 = tested on: HCT-116
# PC-3 = tested on: PC-3
# SF-268 = tested on: SF-268
# K562 = tested on: K562
# HCT-15 = tested on: HCT-15
# SF-295 = tested on: SF-295
# NCI-H522 = tested on: NCI-H522
# HCC 2998 = tested on: HCC 2998
# MOLT-4 = tested on: MOLT-4
# M14 = tested on: M14
# UACC-62 = tested on: UACC-62
# MDA-MB-231 = tested on: MDA-MB-231
# SNB-75 = tested on: SNB-75
# A498 = tested on: A498
# SN12C = tested on: SN12C
# SK-MEL-2 = tested on: SK-MEL-2
# SW-620 = tested on: SW-620
# BT-549 = tested on: BT-549
# SF-539 = tested on: SF-539
# SK-OV-3 = tested on: SK-OV-3
# TK-10 = tested on: TK-10
# U-251 = tested on: U-251
# CAKI-1 = tested on: CAKI-1
# SK-MEL-5 = tested on: SK-MEL-5
# UACC-257 = tested on: UACC-257
# COLO 205 = tested on: COLO 205
# T47D = tested on: T47D
# MDA-N = tested on: MDA-N
# SR = tested on: SR
# OVCAR-3 = tested on: OVCAR-3
# RXF 393 = tested on: RXF 393
# NCI/ADR-RES = tested on: NCI/ADR-RES
# DU-145 = tested on: DU-145
# NCI-H460 = tested on: NCI-H460
# HOP-62 = tested on: HOP-62
# EKVX = tested on: EKVX
# UO-31 = tested on: UO-31
# LOX IMVI = tested on: LOX IMVI
# NCI-H23 = tested on: NCI-H23
# RPMI-8226 = tested on: RPMI-8226
# MCF7 = tested on: MCF7
# 786-0 = tested on: 786-0
# HT-29 = tested on: HT-29
# HL-60 = tested on: HL-60
# SK-MEL-28 = tested on: SK-MEL-28
# CCRF-CEM = tested on: CCRF-CEM
# A549 = tested on: A549
# IGROV-1 = tested on: IGROV-1
# ACHN = tested on: ACHN
# OVCAR-4 = tested on: OVCAR-4
# KM12 = tested on: KM12
# MDA-MB-435 = tested on: MDA-MB-435
# Hs-578T = tested on: Hs-578T
# Malme-3M = tested on: Malme-3M
# SNB-19 = tested on: SNB-19
# OVCAR-8 = tested on: OVCAR-8
# HOP-92 = tested on: HOP-92
# NCI-H226 = tested on: NCI-H226
# OVCAR-5 = tested on: OVCAR-5
# DMS-114 = tested on: DMS-114
# M19-MEL = tested on: M19-MEL
# KM-20L2 = tested on: KM-20L2
# LXFL 529 = tested on: LXFL 529
# SNB-78 = tested on: SNB-78
smiles,measurement,setting,value
C=C1c2nc3ccccc3n2C=C(c2ccccc2)N1c1ccc([N+](=O)[O-])cc1,GI50,HCT-116,2.52 µM (inactive)
same,GI50,PC-3,15.3 µM (inactive)
same,GI50,SF-268,8.11 µM (inactive)
same,GI50,K562,7.35 µM (inactive)
same,GI50,HCT-15,5.75 µM
same,GI50,SF-295,3.37 µM (inactive)
same,GI50,NCI-H522,3.67 µM (inactive)
same,GI50,HCC 2998,3.49 µM (inactive)
same,GI50,MOLT-4,29.2 µM (inactive)
same,GI50,M14,8.57 µM (inactive)
same,GI50,UACC-62,7.26 µM (inactive)
same,GI50,MDA-MB-231,2.39 µM (inactive)
same,GI50,SNB-75,3.15 µM (inactive)
same,GI50,A498,8.38 µM (inactive)
same,GI50,SN12C,7.89 µM (inactive)
same,GI50,SK-MEL-2,17.7 µM (inactive)
same,GI50,SW-620,14.4 µM (inactive)
same,GI50,BT-549,9.16 µM (inactive)
same,GI50,SF-539,1.05 µM (active)
same,GI50,SK-OV-3,1.79 µM (inactive)
same,GI50,TK-10,4.32 µM (inactive)
same,GI50,U-251,5.33 µM (inactive)
same,GI50,CAKI-1,9.2 µM (inactive)
same,GI50,SK-MEL-5,4.02 µM (inactive)
same,GI50,UACC-257,15.3 µM (inactive)
same,GI50,COLO 205,6.52 µM (inactive)
same,GI50,T47D,6.25 µM (inactive)
same,GI50,MDA-N,7.6 µM (inactive)
same,GI50,SR,4.95 µM (inactive)
same,GI50,OVCAR-3,7.06 µM (inactive)
same,GI50,RXF 393,3.01 µM (inactive)
same,GI50,NCI/ADR-RES,7.18 µM (inactive)
same,GI50,DU-145,6.92 µM (inactive)
same,GI50,NCI-H460,1.72 µM (inactive)
same,GI50,HOP-62,4.92 µM (inactive)
same,GI50,EKVX,4.85 µM (inactive)
same,GI50,UO-31,3.3 µM (inactive)
same,GI50,LOX IMVI,5.36 µM (inactive)
same,GI50,NCI-H23,9.38 µM (inactive)
same,GI50,RPMI-8226,8.81 µM (inactive)
same,GI50,MCF7,3.61 µM (inactive)
same,GI50,786-0,0.855 µM (active)
same,GI50,HT-29,3.47 µM (inactive)
same,GI50,HL-60,7.01 µM (inactive)
same,GI50,SK-MEL-28,24.6 µM (inactive)
same,GI50,CCRF-CEM,9.46 µM (inactive)
same,GI50,A549,2.31 µM (inactive)
same,GI50,IGROV-1,4.84 µM (inactive)
same,GI50,ACHN,1.67 µM (inactive)
same,GI50,OVCAR-4,0.324 µM (active)
same,GI50,KM12,4.14 µM (inactive)
same,GI50,MDA-MB-435,5.61 µM (inactive)
same,GI50,Hs-578T,3.04 µM (inactive)
same,GI50,Malme-3M,3.01 µM (inactive)
same,GI50,SNB-19,5.65 µM (inactive)
same,GI50,OVCAR-8,4.49 µM (inactive)
same,GI50,HOP-92,3.9 µM (inactive)
same,GI50,NCI-H226,5.5 µM (inactive)
same,GI50,OVCAR-5,10.7 µM (inactive)
COc1ccc2c(c1)CC[C@@H]1C2CC[C@]2(C)C(=O)N(N)C(=O)CC12 (some centres undefined),GI50,HCT-116,> 100 µM (inactive)
same,GI50,SF-268,> 100 µM (inactive)
same,GI50,K562,32.6 µM (inactive)
same,GI50,SF-295,> 100 µM (inactive)
same,GI50,NCI-H522,48.8 µM (inactive)
same,GI50,MOLT-4,44.4 µM (inactive)
same,GI50,M14,78.3 µM (inactive)
same,GI50,UACC-62,80.9 µM (inactive)
same,GI50,SNB-75,> 100 µM (inactive)
same,GI50,A498,35.8 µM (inactive)
same,GI50,SK-MEL-2,> 100 µM (inactive)
same,GI50,SK-OV-3,> 100 µM (inactive)
same,GI50,U-251,> 100 µM (inactive)
same,GI50,UACC-257,35.6 µM (inactive)
same,GI50,COLO 205,> 100 µM (inactive)
same,GI50,DMS-114,44.5 µM (inactive)
same,GI50,SR,38 µM (inactive)
same,GI50,OVCAR-3,> 100 µM (inactive)
same,GI50,RXF 393,> 10 µM (inactive)
same,GI50,M19-MEL,> 100 µM (inactive)
same,GI50,NCI-H460,37.2 µM (inactive)
same,GI50,HOP-62,> 100 µM (inactive)
same,GI50,KM-20L2,32.9 µM (inactive)
same,GI50,UO-31,72.9 µM (inactive)
same,GI50,NCI-H23,> 100 µM (inactive)
same,GI50,RPMI-8226,28.8 µM (inactive)
same,GI50,LXFL 529,52.6 µM (inactive)
same,GI50,786-0,> 100 µM (inactive)
same,GI50,HT-29,> 100 µM (inactive)
same,GI50,SK-MEL-28,> 100 µM (inactive)
same,GI50,CCRF-CEM,80 µM (inactive)
same,GI50,IGROV-1,> 100 µM (inactive)
same,GI50,ACHN,> 100 µM (inactive)
same,GI50,OVCAR-4,> 100 µM (inactive)
same,GI50,KM12,> 100 µM (inactive)
same,GI50,Malme-3M,> 100 µM (inactive)
same,GI50,SNB-19,> 100 µM (inactive)
same,GI50,SNB-78,77.4 µM (inactive)
same,GI50,HOP-92,> 100 µM (inactive)
same,GI50,OVCAR-5,> 100 µM (inactive)
